# Test results reported in PubChem BioAssay AID1645863 (Buhrlage Lab, Dana-Farber Cancer Institute and Novartis …, 2021).
# Activity calls are given as the source filed them. How the calls were made is not given here.
# Molecular target: Ubiquitin carboxyl-terminal hydrolase 10 (Homo sapiens) (UniProt Q14694)
# Test: ubiquitin-specific protease 10 DUB inhibitors, concentration-effect, biochemical, verification of primary screen actives (AID 1645863);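 further: potency values describe inhibition of USP10 cleavage of a fluorogenic ubiquitin substrate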
# Settings: USP10 deubiquitinase enzymatic assay
# Chain of Ubiquitin carboxyl-terminal hydrolase 10 (Homo sapiens) (Q14694 whole entry, looked up): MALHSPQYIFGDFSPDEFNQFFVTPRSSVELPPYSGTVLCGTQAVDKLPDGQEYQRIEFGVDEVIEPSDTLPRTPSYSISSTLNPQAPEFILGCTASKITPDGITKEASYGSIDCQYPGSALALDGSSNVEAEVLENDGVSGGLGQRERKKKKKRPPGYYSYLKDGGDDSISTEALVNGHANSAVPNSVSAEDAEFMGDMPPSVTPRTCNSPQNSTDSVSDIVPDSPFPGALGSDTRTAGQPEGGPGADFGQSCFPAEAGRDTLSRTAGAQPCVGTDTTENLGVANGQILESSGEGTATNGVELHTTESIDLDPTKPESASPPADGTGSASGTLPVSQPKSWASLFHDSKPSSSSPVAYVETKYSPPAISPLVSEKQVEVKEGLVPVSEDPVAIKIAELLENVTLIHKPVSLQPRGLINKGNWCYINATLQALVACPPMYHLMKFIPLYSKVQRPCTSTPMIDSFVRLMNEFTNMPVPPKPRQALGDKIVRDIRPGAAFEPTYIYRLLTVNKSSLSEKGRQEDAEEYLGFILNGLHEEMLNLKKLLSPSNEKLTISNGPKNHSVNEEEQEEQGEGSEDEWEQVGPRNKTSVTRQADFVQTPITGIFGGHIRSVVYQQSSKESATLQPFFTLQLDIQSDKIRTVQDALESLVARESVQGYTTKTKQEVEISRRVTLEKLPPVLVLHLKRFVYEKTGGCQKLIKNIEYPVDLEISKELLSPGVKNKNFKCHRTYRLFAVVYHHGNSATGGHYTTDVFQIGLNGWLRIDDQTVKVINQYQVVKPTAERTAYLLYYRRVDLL
row,Structure (SMILES),IC50
1,N#Cc1cccnc1N1CCN(C(=O)Nc2cccc3ccccc23)CC1,> 40 µM (inactive)
2,O=C(Nc1ccc2c(c1)CCC2)C1Cc2ccccc2CN1C(=O)c1ccccc1 (centres undefined),> 40 µM (inactive)
3,Cn1nc(Cl)c(Cl)c1Oc1ccc(S(=O)(=O)Nc2ccc(Oc3ccc(C(F)(F)F)cn3)c(Cl)c2)cc1,13 µM
4,CC(Nc1nnc(Cc2ccccc2)c(=O)[nH]1)c1ccccc1 (centres undefined),> 40 µM (inactive)
5,CCOC(=O)C1CCN(C(=O)c2ccc3c(c2)NC(=O)C2CCCN32)CC1 (centres undefined),> 40 µM (inactive)
6,COc1ccc(CCNC(=O)Cn2c(=O)n(-c3ccc(CC(=O)NCCc4ccccc4)cc3)c(=O)c3ccccc32)cc1OC,> 40 µM (inactive)
7,FC(F)(F)c1cccc(Nc2nc(-c3ccccn3)nc3ccccc23)c1,> 40 µM (inactive)
8,O=C(c1ccco1)N1CCC2(CC1)CC1(CO2)Nc2ccccc2-n2cccc21 (centres undefined),> 40 µM (inactive)
9,COc1ccc(-n2c(=O)c3ccc(C(=O)NCCc4ccccc4)cc3n(CC(=O)NCc3ccco3)c2=O)cc1,> 40 µM (inactive)
10,CCOc1ccc(S(=O)(=O)Nc2ccc[nH]c2=O)cc1,> 40 µM (inactive)
11,CCc1ccc(OCCn2c(CCNC(=O)C3CCCCC3)nc3ccccc32)cc1,> 40 µM (inactive)
12,O=C(Cn1c(=O)n(Cc2ccccc2)c(=O)c2ncccc21)NCc1ccccc1Cl,> 40 µM (inactive)
13,O=c1c(O)c(-c2ccc(O)c(O)c2)oc2cc(O)cc(O)c12,1.16 µM
14,O=C(Cc1ccc(-n2c(=O)c3ccccc3n(Cc3cccc(F)c3)c2=O)cc1)NC1CCCC1,> 40 µM (inactive)
15,CCOc1ccc(Oc2nc(CN3CCCC3)nc3sc(C)c(C)c23)cc1,> 40 µM (inactive)
16,O=C(c1cnc2[nH][nH]c(=O)c2c1)c1cc(Cl)cc(Cl)c1O,5.78 µM
17,CC1Oc2cc3c(-c4c(O)cc(O)c5c(O)c6c(cc45)OC(C)C(C)C6=O)c(O)cc(O)c3c(O)c2C(=O)C1C (centres undefined),> 40 µM (inactive)
18,Cc1ccnc(Nc2nc(-c3ccccc3)c3cc(Cl)ccc3n2)n1,14.7 µM
19,CS(=O)(=O)c1cccc(C(=O)Nc2sc3c(c2C(N)=O)CCCC3)c1,> 40 µM (inactive)
20,COc1cccc(NC(=O)CCc2nnc3n(CCCOC(C)C)c(=O)c4ccccc4n23)c1,> 40 µM (inactive)
21,O=C(CCCn1c(=O)c2ccccc2n(CC(=O)NCc2ccccc2Cl)c1=O)NCc1ccc2c(c1)OCO2,8.88 µM
22,CCCCN1CC(C(=O)Nc2ccc(C(=O)Nc3ccc(C(N)=O)cc3)cc2)CC1=O (centres undefined),> 40 µM (inactive)
23,CCCCCCCC1OC(=O)Cc2cc(O)c(O)c(O)c21 (centres undefined),3.3 µM
24,O=C(CCSc1nnnn1-c1ccccc1)Nc1cc(C(F)(F)F)ccc1Cl,> 40 µM (inactive)

row,Structure (SMILES),IC50
1,CS(=O)(=O)NC1CCCN(C(=O)Nc2cccc3ccccc23)C1 (centres undefined),> 40 µM (inactive)
2,CCCCCCCc1cc(OC(=O)c2c(CCCCCCC)cc(O)cc2O[C@@H]2O[C@H](CO)[C@H](O)[C@H](O)[C@H]2O)cc(O)c1C(=O)O,5.17 µM
3,CC(C)(C)C(=O)C1C2C(=O)N(c3ccc4c(c3)OCO4)C(=O)C2C2c3ccccc3C=CN12 (centres undefined),> 40 µM (inactive)
4,C/C(=C\Cc1c(O)cc(C)c(C=O)c1O)CC[C@@]1(C)[C@H](C)CCC(=O)[C@@H]1C,> 40 µM (inactive)
5,CN1CCc2c(C#N)c(N3CCOCC3)nc(NCC3CCCO3)c2C1 (centres undefined),> 40 µM (inactive)
6,Cn1c(CCNC(=O)c2[nH]nc3c2CCc2ccccc2-3)nc2ccccc21,36.1 µM
7,O=C(Cn1c(=O)n(-c2ccc(Cl)cc2)c(=O)c2c3c(sc21)CCCC3)NCC1CCCO1 (centres undefined),> 40 µM (inactive)
8,CCn1cc2c(n1)c(=O)n(Cc1ccccc1)c(=O)n2CC(=O)Nc1ccc(C(C)C)cc1,15 µM
9,CCN(c1ccc(NC(=O)COC(=O)c2cccnc2Nc2cccc(C(F)(F)F)c2)cc1)C(C)C,> 40 µM (inactive)
10,Cc1ccc2c(CNCCC3=CCCCC3)c(C(=O)O)n(C)c2c1,> 40 µM (inactive)
11,O=C(Cn1cc(C(=O)C(F)(F)F)c2cc(Br)ccc21)N1CCc2ccccc21,35.6 µM
12,O=C1CC(c2cc3c(cc2Br)OCO3)c2cc3c(cc2N1)OCCO3 (centres undefined),> 40 µM (inactive)
13,COc1ccc(Cl)cc1NC(=O)CSc1ncnc2nc[nH]c12,37.9 µM
14,Cc1nc(-c2ccccc2)sc1-c1nc(-c2ccccc2)ncc1S(=O)(=O)c1ccccc1,> 40 µM (inactive)
15,COc1cc(OC)c(NC(=O)Cn2c(=O)n(Cc3ccccc3Cl)c(=O)c3cc(OC)c(OC)cc32)cc1Cl,> 40 µM (inactive)
16,CCOC(=O)c1ccc(NC(=O)Cn2c(=O)n(-c3ccc(CC(=O)NCc4ccco4)cc3)c(=O)c3ccccc32)cc1,> 40 µM (inactive)
17,CO/C=C/C(=O)c1cc2cnc3c(=N)cc(NC(C)=O)c([nH]1)c23,inactive
18,COc1ccc(NC(=O)Cn2c(=O)n(Cc3ccco3)c(=O)c3ccc(C(=O)NC4CCCC4)cc32)cc1,> 40 µM (inactive)
19,O=C(NCCc1nc2ccccc2n1Cc1ccccc1F)c1ccc(Cl)cc1,24.4 µM
20,O=C(Cn1c(=O)c2ccccc2n(CC(=O)Nc2cccc(F)c2)c1=O)NCCc1ccccc1,27.4 µM
21,CCOc1ncccc1C(=O)Nc1ccnn1Cc1ccccc1,> 40 µM (inactive)
22,O=C(c1ccco1)N1CCCC1c1nc(-c2ccccc2)n[nH]1 (centres undefined),> 40 µM (inactive)
23,O=C(c1[nH]nc2c1COc1ccccc1-2)N1CCN(c2ccccn2)CC1,> 40 µM (inactive)
24,O=C(/C=C/c1cccc([N+](=O)[O-])c1)N1CCc2ccccc21,> 40 µM (inactive)

# Other lines, results leading:
row,IC50,Structure (SMILES)
1,> 40 µM (inactive),Cn1cc2cccc(NC(=O)c3ccc(F)cc3)c2n1
2,> 40 µM (inactive),Cc1ccc(NC(=O)Nc2ccc(C)n(CC(=O)Nc3cc(C)ccc3C)c2=O)cc1
3,> 40 µM (inactive),COc1ccc(-c2ccc(SCC(=O)Nc3ccc(F)cc3)nn2)cc1OC
4,3.21 µM,Cn1c(=O)c2nc(-c3ccc(Cl)cc3)nnc2n(C)c1=O
5,> 40 µM (inactive),COc1ccc(-c2cc3c(=O)n(CC(=O)NCc4ccccc4)ncn3n2)cc1
6,30.7 µM,CC(NC(=O)c1nc2n(n1)-c1ccccc1S(=O)(=O)N2)c1cc2ccccc2o1 (centres undefined)
7,> 40 µM (inactive),Cc1ccc2nc(CNc3ccc(F)cc3C)cc(=O)n2c1
8,> 40 µM (inactive),Cc1nc(SCC(=O)NC(C)c2ccccc2)c2oc3ccccc3c2n1 (centres undefined)
9,> 40 µM (inactive),Cc1cccc(NC(=O)CSc2nnc(-c3n[nH]c4c3CCC4)n2N)c1C
10,> 40 µM (inactive),CCc1ccc(NC(=O)c2cc(C(F)(F)F)n(C)n2)cc1
11,> 40 µM (inactive),Cc1cc(C)c(O)c(-c2cc(C(=O)Nc3ccccc3Cl)[nH]n2)c1
12,21.9 µM,Cc1ccc(NC(=O)Nc2ccc(C)n(CC(=O)Nc3ccc(C)cc3C)c2=O)cc1
13,> 40 µM (inactive),Cc1cc(C)c(C#N)c(N2CCN(CCOc3ccc(Cl)cc3)CC2)n1
14,> 40 µM (inactive),CCCn1cc(-c2nc(-c3ccccn3)no2)c(=O)c2ccccc21
15,30.5 µM,COC(=O)c1ccc(Nc2cc(C)nc3cc(C(F)(F)F)ccc23)cc1
16,> 40 µM (inactive),O=C(Nc1ccc(Br)cc1F)c1ccc(S(=O)(=O)N2CCCC2)cc1
17,16.3 µM,COc1cc(Cl)c(C)cc1NC(=O)Cn1c(=O)n(CC(=O)NCc2ccco2)c(=O)c2ccccc21
18,38.1 µM,Cc1nc(-c2ccc(Cl)cc2)oc1C(=O)Nc1ccc(Cl)cc1
19,> 40 µM (inactive),Cc1cccc(NC(=O)CCCc2nnc3c(=O)n(-c4cccc(F)c4)ccn23)c1
20,> 40 µM (inactive),Cc1cc(NC(=O)CN2CCCN(S(=O)(=O)c3ccc(F)cc3)CC2)ccc1Br
21,> 40 µM (inactive),Cc1ccc(C)c(Cn2cnc3c(nnn3-c3cccc(F)c3)c2=O)c1
22,> 40 µM (inactive),CCOc1ccc2[nH]c(=O)c(-c3nc4ccc(C)cn4c3NCc3ccccc3)cc2c1
23,37.9 µM,COc1ccc(NC(=O)[C@H](C)NC(=O)c2cc3c(OC)cccc3[nH]2)cc1Cl

row,IC50,Structure (SMILES)
1,> 40 µM (inactive),Cc1ccc(NC(=O)Nc2nnc(CC(=O)NCc3ccccc3)s2)c(Cl)c1
2,9.85 µM,COc1ccc(-c2nc(SCC(=O)Oc3c(C)cccc3C)n3[nH]c(=O)cc3n2)cc1
3,27.1 µM,Cc1cccc(NC(=O)Nc2ccccc2OCc2cc(=O)n3cccc(C)c3n2)c1
4,> 40 µM (inactive),COCCCn1c(C(=O)NCc2ccccc2)cc2c(=O)n3ccccc3nc21
5,> 40 µM (inactive),Cc1ccc(NC(=O)Nc2nnc(CC(=O)NCc3ccccc3)s2)cc1F
6,31.5 µM,Cc1ccc(NC(=O)Cc2nnc3c(-c4nc(C5CC5)no4)cccn23)cc1F
7,17.4 µM,Cc1cccc(NC(=O)Nc2nnc(CC(=O)NCc3ccccc3)s2)c1
8,> 40 µM (inactive),Cc1ccc(C)c(S(=O)(=O)N2CCN(c3ccc4nnc(-c5ccco5)n4n3)CC2)c1
9,> 40 µM (inactive),N#Cc1ccc(NC(=O)Nc2cccn(Cc3c(F)cccc3Cl)c2=O)cc1
10,> 40 µM (inactive),COc1cccc2cc(-c3nnc(SCC(=O)c4ccc(F)cc4)n3C)oc12
11,28.1 µM,COc1cc(NC(=O)Cc2ccccc2)ccc1NC(=O)c1cc2ccccc2o1
12,> 40 µM (inactive),COc1ccccc1C(=O)Nc1ccc(-c2nc3ccccc3o2)c(O)c1
13,23.7 µM,Cc1ccc2[nH]c(=O)c(-c3nc4ccccn4c3NCc3ccccc3)cc2c1
14,10.1 µM,Cc1ccc(-n2cc(-c3noc(C(=O)Nc4ccc(F)cc4C)n3)nn2)cc1
15,12.2 µM,Cc1nc(N2CCCC2)ncc1-c1cc(=O)[nH]c(Nc2ccc(Cl)cc2Cl)n1
16,15.2 µM,COc1ccc(OCCn2c(C3CC(=O)N(c4cccc(C)c4)C3)nc3ccccc32)cc1 (centres undefined)
17,> 40 µM (inactive),Cc1cc(=O)n(CC(=O)Nc2ccc3c(c2)OCO3)c2c1c(-c1ccccc1)nn2-c1ccccc1
18,> 40 µM (inactive),Cn1cc(NC(=O)Nc2cccc3ccccc23)c2ccccc21
19,> 40 µM (inactive),O=C(Cn1ncc2c(=O)oc3ccccc3c21)NCc1ccc2c(c1)OCO2
20,> 40 µM (inactive),O=C(NCc1ccc(Br)cc1)c1cc(-c2cccnc2)n[nH]1
21,> 40 µM (inactive),O=C(Cn1c(=O)n(Cc2ccc3c(c2)OCO3)c(=O)c2cccnc21)Nc1ccc(F)cc1
22,> 40 µM (inactive),Cc1ccc(C(=O)NCc2ccc(C(=O)Nc3ccc(Cl)cc3)o2)cc1
23,> 40 µM (inactive),Cc1nnc2ccc(-c3ccc(NC(=O)c4ccc(Br)o4)cc3)nn12
